Laboratory results reported in patent publication US20250179047A1, “5-[7-(3,4-DIHYDRO-1H-ISOQUINOLINE-2-CARBONYL)-1,2,3,4 TETRAHYDROISOQUINOLIN-6-YL]-1H-PYRROLE-3-CARBOXAMIDE DERIVATIVES, PHARMACEUTICAL COMPOSITIONS CONTAINING THEM AND THEIR USES AS PRO-APOPTOTIC AGENTS” (LES LABORATOIRES SERVIER, priority 2022, published 2025).

How the values were obtained:
Assay type in all cases: cell-based
KMS12PE Bcl2 D103Y = experiment: In vitro cytotoxicity CellTiterGlo 72 h, KMS12PE Bcl2 D103Y; details: Homo sapiens, KMS-12-PE, read-out: C50 nM, KMS12PE Bcl2 D103Y
Description: (§1) KMS-12-PE (ACC 606) were purchased from the Leibniz-Institute DSMZ (Braunschweig, Germany) and were grown at 37° C. in a humidified atmosphere with 5% CO2 in media recommended by the suppliers. Lentiviral particles containing Bcl-2 wild type (also named “Bcl2 WT”), Bcl-2 mutated on G101V (also named “Bcl2 G101V”), Bcl-2 mutated on D103Y (also named “Bcl2 D103Y”), Bcl-2 mutated on D103V (also named “Bcl2 D103V”), Bcl-2 mutated on D103E (also named “Bcl2 D103E”), Bcl-2 mutated on F104I (also named “Bcl2 F104I”), Bcl-2 mutated on F104L (also named “Bcl2 F104L”), Bcl-2 mutated on D111A (also named “Bcl2 D111A”), Bcl-2 mutated on A113G (also named “Bcl2 A113G”), Bcl-2 mutated on R129L (also named “Bcl2 R129L”), Bcl-2 mutated on V156D (also named “Bcl2 V156D”) were cloned into pcLV-CMV-DEST-IRES-TagRFP. Lentiviral particles (1×10^6) were mixed with Polybrene at 8 μg/ml and transduced by spinoculation for 1 h at 32° C. and incubated overnight. After 8 days, TagRFP positive-cells were sorted by FACS. BCL2 expression was monitored by immunoblotting using anti-Flag and anti-BCL2 antibodies. Cells were seeded into 96-wells plates and treated with 1:3.16 serial dilution of compounds (9 different concentrations). Cell viability was assessed using CellTiterGlo reagent following treatment for 72 h. Results were normalized to the viability of cells without compounds (control wells). The C50 values were calculated using nonlinear regression algorithms in XCell software.

KMS-12-PE Bcl-2 G101V = experiment: In vitro cytotoxicity CellTiter-Glo 48 h, KMS-12-PE Bcl-2 G101V; details: for Ratio (G101V/WT): C50 KMS-12-PE Bcl-2 G101V over C50 KMS-12-PE Bcl-2 WT; for IC50: 48 h, CellTiter-Glo, C50 = concentration needed to reach 50% of the cellular viability
Summary of the method: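 Bcl-2 WT- and G101V-expressing KMS-12-PE cells; 48 h treatment at 37 °C, 5% CO2; CellTiter-Glo ATP luminescence; C50 from 11-point curves.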

KMS12PE Bcl2 G101V = experiment: In vitro cytotoxicity CellTiterGlo 72 h, KMS12PE Bcl2 G101V; details: Homo sapiens, KMS-12-PE, read-out: C50 nM, KMS12PE Bcl2 G101V
Description: as §1

KMS12PE Bcl2 WT = experiment: In vitro cytotoxicity CellTiterGlo 72 h, KMS12PE Bcl2 WT; details: Homo sapiens, KMS-12-PE, read-out: C50 nM, KMS12PE Bcl2 WT
Description: as §1

KMS12PE Bcl2 F104I = experiment: In vitro cytotoxicity CellTiterGlo 72 h, KMS12PE Bcl2 F104I; details: Homo sapiens, KMS-12-PE, read-out: C50 nM, KMS12PE Bcl2 F104I
Description: as §1

Row | SMILES | IC50 (KMS12PE Bcl2 D103Y) [nM] | Ratio (G101V/WT) (KMS-12-PE Bcl-2 G101V) | IC50 (KMS-12-PE Bcl-2 G101V; Homo sapiens, KMS-12-PE) [µM] | IC50 (KMS12PE Bcl2 G101V) [nM] | IC50 (KMS12PE Bcl2 WT) [nM] | IC50 (KMS12PE Bcl2 F104I) [nM] | IC50 (KMS-12-PE Bcl-2 G101V) [µM]
1 | Cc1c(N(C(=O)c2cc(-c3cc4c(cc3C(=O)N3Cc5ccccc5C[C@H]3C)CN(C(=O)Cc3ccc(OCCN5CCOCC5)cc3)CC4)n(C)c2C)c2ccc(O)cc2)cc(C#N)n1C [Example 21, N-(5-cyano-1,2-dimethyl-1H-pyrrol-3-yl)-N-(4-hydroxyphenyl)-1,2-dimethyl-5-{7-[(3R)-3-methyl-1,2,3,4-tetrahydroisoquinoline-2-carbonyl]-2-(2-{4-[2-(morpholin-4-yl)ethoxy]phenyl}acetyl)-1,2,3,4-tetrahydroisoquinolin-6-yl}-1H-pyrrole-3-carboxamide] | 2.1 | 4.02 | 0.023 | 9.36 | 2.56 | 45 | –
2 | Cc1c(N(C(=O)c2cc(-c3cc4c(cc3C(=O)N3Cc5ccccc5C[C@H]3C)CN(C(=O)Cc3ccc(OCCC5CCOCC5)cc3)CC4)n(C)c2C)c2ccc(O)cc2)cc(C#N)n1C [Example 27, N-(5-cyano-1,2-dimethyl-1H-pyrrol-3-yl)-N-(4-hydroxyphenyl)-1,2-dimethyl-5-{7-[(3R)-3-methyl-1,2,3,4-tetrahydroisoquinoline-2-carbonyl]-2-(2-{4-[2-(oxan-4-yl)ethoxy]phenyl}acetyl)-1,2,3,4-tetrahydroisoquinolin-6-yl}-1H-pyrrole-3-carboxamide] | 1.1 | 4.23 | 0.0143 | 7.19 | 1.53 | 29.1 | –
3 | Cc1c(N(C(=O)c2cc(-c3cc4c(cc3C(=O)N3Cc5ccccc5C[C@H]3CN3CCCCC3)CN(C(=O)Cc3ccc(OCCN5CCOCC5)cc3F)CC4)n(C)c2C)c2ccc(O)cc2)cc(C#N)n1C [Example 43, N-(5-cyano-1,2-dimethylpyrrol-3-yl)-5-[2-(2-{2-fluoro-4-[2-(morpholin-4-yl)ethoxy]phenyl}acetyl)-7-{[(3S)-3-(piperidin-1-ylmethyl)-3,4-dihydro-1H-isoquinolin-2-yl]carbonyl}-3,4-dihydro-1H-isoquinolin-6-yl]-N-(4-hydroxyphenyl)-1,2-dimethylpyrrole-3-carboxamide] | 1.28 | 4.82 | – | 10 | 1.8 | 29.3 | 0.0232
4 | Cc1c(N(C(=O)c2cc(-c3cc4c(cc3C(=O)N3Cc5ccccc5C[C@H]3C)CN(C(=O)Cc3ccc(N5CCN6CCOC[C@@H]6C5)cc3F)CC4)n(C)c2C)c2ccc(O)cc2)cc(C#N)n1C [Example 45, 5-[2-(2-{4-[(9aS)-octahydropyrazino[2,1-c][1,4]oxazin-8-yl]-2-fluorophenyl}acetyl)-7-[(3R)-3-methyl-1,2,3,4-tetrahydroisoquinoline-2-carbonyl]-1,2,3,4-tetrahydroisoquinolin-6-yl]-N-(5-cyano-1,2-dimethyl-1H-pyrrol-3-yl)-N-(4-hydroxyphenyl)-1,2-dimethyl-1H-pyrrole-3-carboxamide] | 0.2 | 6.47 | 0.0324 | 18.2 | 3.3 | 114 | –
5 | Cc1c(N(C(=O)c2cc(-c3cc4c(cc3C(=O)N3Cc5ccccc5C[C@H]3C)CN(C(=O)Cc3ccc(CCN5CCC(F)(F)CC5)cc3)CC4)n(C)c2C)c2ccc(O)cc2)cc(C#N)n1C [Example 51, N-(5-cyano-1,2-dimethylpyrrol-3-yl)-5-[2-(2-{4-[2-(4,4-difluoropiperidin-1-yl)ethyl]phenyl}acetyl)-7-{[(3R)-3-methyl-3,4-dihydro-1H-isoquinolin-2-yl]carbonyl}-3,4-dihydro-1H-isoquinolin-6-yl]-N-(4-hydroxyphenyl)-1,2-dimethylpyrrole-3-carboxamide] | 2.79 | 5.07 | 0.0362 | 20.2 | 2.82 | 321 | –
6 | COC[C@@H]1Cc2ccccc2CN1C(=O)c1cc2c(cc1-c1cc(C(=O)N(c3ccc(O)cc3)c3cc(C#N)n(C)c3C)c(C)n1C)CCN(C(=O)Cc1ccc(OCCC3CCOCC3)cc1F)C2 [Example 52, N-(5-cyano-1,2-dimethylpyrrol-3-yl)-5-[2-(2-{2-fluoro-4-[2-(oxan-4-yl)ethoxy]phenyl}acetyl)-7-{[(3S)-3-(methoxymethyl)-3,4-dihydro-1H-isoquinolin-2-yl]carbonyl}-3,4-dihydro-1H-isoquinolin-6-yl]-N-(4-hydroxyphenyl)-1,2-dimethylpyrrole-3-carboxamide] | 1.8 | 4.08 | 0.0139 | 10.6 | 2.07 | 11.1 | –
7 | Cc1c(N(C(=O)c2cc(-c3cc4c(cc3C(=O)N3Cc5ccccc5C[C@H]3C)CN(C(=O)Cc3ccc(OCCN5CCC(F)CC5)cc3)CC4)n(C)c2C)c2ccc(O)cc2)cc(C#N)n1C [Example 53, N-(5-cyano-1,2-dimethyl-1H-pyrrol-3-yl)-5-[2-(2-{4-[2-(4-fluoropiperidin-1-yl)ethoxy]phenyl}acetyl)-7-[(3R)-3-methyl-1,2,3,4-tetrahydroisoquinoline-2-carbonyl]-1,2,3,4-tetrahydroisoquinolin-6-yl]-N-(4-hydroxyphenyl)-1,2-dimethyl-1H-pyrrole-3-carboxamide] | 2.61 | 5.12 | 0.0337 | 16.3 | 2.88 | 72.7 | –
8 | Cc1c(N(C(=O)c2cc(-c3cc4c(cc3C(=O)N3Cc5ccccc5C[C@H]3C)CN(C(=O)Cc3ccc(OCCN5CCSCC5)cc3)CC4)n(C)c2C)c2ccc(O)cc2)cc(C#N)n1C [Example 55, N-(5-cyano-1,2-dimethyl-1H-pyrrol-3-yl)-N-(4-hydroxyphenyl)-1,2-dimethyl-5-{7-[(3R)-3-methyl-1,2,3,4-tetrahydroisoquinoline-2-carbonyl]-2-(2-{4-[2-(thiomorpholin-4-yl)ethoxy]phenyl}acetyl)-1,2,3,4-tetrahydroisoquinolin-6-yl}-1H-pyrrole-3-carboxamide] | 2.5 | 4.22 | 0.026 | 13.7 | 2.61 | 57.8 | –
9 | Cc1c(N(C(=O)c2cc(-c3cc4c(cc3C(=O)N3Cc5ccccc5C[C@H]3CN3CCCCC3)CN(C(=O)Cc3ccc(OCCC5CCOCC5)cc3)CC4)n(C)c2C)c2ccc(O)cc2)cc(C#N)n1C [Example 66, N-(5-cyano-1,2-dimethylpyrrol-3-yl)-N-(4-hydroxyphenyl)-1,2-dimethyl-5-[2-(2-{4-[2-(oxan-4-yl)ethoxy]phenyl}acetyl)-7-{[(3S)-3-(piperidin-1-ylmethyl)-3,4-dihydro-1H-isoquinolin-2-yl]carbonyl}-3,4-dihydro-1H-isoquinolin-6-yl]pyrrole-3-carboxamide] | 1.3 | 5.46 | 0.033 | 10.1 | 1.74 | 65.2 | –
10 | Cc1c(C(=O)N(c2ccc(O)cc2)c2cc(C#N)n(C(F)F)c2C)cc(-c2cc3c(cc2C(=O)N2Cc4ccccc4C[C@H]2CN2CCCCC2)CN(C(=O)Cc2ccc(OCCN4CCOCC4)cc2)CC3)n1C [Example 77] | 3.31 | 5.1 | 0.0487 | 28.2 | 4.75 | 156 | –
11 | Cc1c(C(=O)N(c2ccc(O)cc2)c2cc(C#N)n(C(F)F)c2C)cc(-c2cc3c(cc2C(=O)N2Cc4ccccc4C[C@H]2CN2CCCCC2)CN(C(=O)Cc2ccc(OCCN4CCOCC4)cc2F)CC3)n1C [Example 78, N-[5-cyano-1-(difluoromethyl)-2-methylpyrrol-3-yl]-5-[2-(2-{2-fluoro-4-[2-(morpholin-4-yl)ethoxy]phenyl}acetyl)-7-{[(3S)-3-(piperidin-1-ylmethyl)-3,4-dihydro-1H-isoquinolin-2-yl]carbonyl}-3,4-dihydro-1H-isoquinolin-6-yl]-N-(4-hydroxyphenyl)-1,2-dimethylpyrrole-3-carboxamide] | 1 | 5.98 | 0.0299 | 8.35 | 1.41 | 21.8 | –
